The values that follow come from US11731946B2, “Broad spectrum antivirulence, anti-persistence compounds” (priority 2017, dated 2023).

Series [1] has as its system MvfR regulon. Description: Quantification of pyocyanin (OD520nm of chloroform-extracted cultures). In kind it is cell-based, P. aeruginosa. Conditions: for activity at 1 µM: read-out: pyocyanin @1 uM (%), compound at 1 uM; for activity at 10 µM: read-out: pyocyanin @10 uM (%), compound at 10 uM; for activity at 50 µM: read-out: pyocyanin @50 uM (%), compound at 50 uM.
For series [2], the system named is MvfR regulon. Description: pqsA gene expression (pqsA-GFP reporter). The note with it: for IC50 / activity at 10 µM / activity at 50 µM: Pseudomonas aeruginosa; for IC50: read-out: IC50 pqsA (μM); for activity at 10 µM: read-out: pqsA @10 uM (%), compound at 10 uM; for activity at 50 µM: read-out: pqsA @50 uM (%), compound at 50 uM. In kind it is cell-based, P. aeruginosa.

The target of another series is T1, MvfR (Pseudomonas aeruginosa, UniProt Q9I4X0).
T1 construct: made in house
Description: Surface plasmon resonance (SPR) binding to purified MvfR co-inducer binding domain. Also noted: species or system P. aeruginosa. The note with it: SPR. The protocol:
Compounds identified to interfere with MvfR were confirmed for the direct physical interaction with this protein. Using SPR, the percentage of compound's binding to the purified MvfR protein was analyzed and used to determine the binding parameters (KD, kon and koff)—thus determining the kinetic of interaction with MvfR.
The recombinant MvfR co-inducer binding domain was purified using Ni-NTA chromatography, as previously reported (see e.g., Xiao et al, Microbiology, 2006, 152:1679-1686; Starkey et al, PLoS Pathog. 2014, 10:e1004321; and Kefala et al, Acta. Crystallogr. Sect. F. Struct. Biol. Cryst. Commun. 2012, 68:695-697). The purified protein was immobilized with the amine coupling method at a target level of 5000 RU on Chip. SPR was performed according to previously reported procedures (see e.g., Starkey et al, PLoS Pathog. 2014, 10:e1004321; Maura et al, ACS Chemical Biology, 2017, 12:1435-1443; and Kitao et al, MBIO, in press). […] Table 3 lists the steady-state KD data measured by SPR.
A general note: In SPR one partner is held on a chip, and binding of the other changes the refractive index at the surface.

Series [3] relates to Pseudomonas aeruginosa MDR clinical isolates. Description: Pyocyanin production in MDR clinical isolates. In kind it is cell-based. Conditions: 10 μM. The procedure:
Percentage of pyocyanin production is presented in presence of 10 μM of D57 or D88 compounds. Tukey's multiple comparisons test p<0.0001.
Pyocyanin levels were determined by measuring OD520nm of chloroform-extracted cultures.

Series [4] can be described thus: Pharmacokinetics in mouse plasma and lung after single subcutaneous injection. In kind it is in vivo, mice. The procedure:
FIGS. 1F-1G show pharmacokinetics measured in mouse plasma (FIG. 1F) and lung (FIG. 1G) following a single subcutaneous injection of Compounds 53, 54, or 72 at 10 mg/kg.

A further series has as its system PA14. Description: Mouse thigh infection model (PA14). The class given is in vivo, mice. The procedure: Mice were infected with 5×10^5 and 5×10^6 PA14 cells for the thigh and lung infection model respectively. FIGS. 5A-5C: Thigh model: treatment was initiated […] and repeated at 4, 8, 12 and 18 hours. FIG. 5A: monotherapy with Compound 72, 10 mg/kg (P<0.05 Mann Whitney test); FIG. 5B-5C. Combinatorial: Compound 72 (10 mg/kg) plus Ciprofloxacin 1 mg/kg (subtherapeutic dose) (FIG. 5B: P<0.05; Figure C: P>0.05; Mann Whitney test). CFUs were assessed 24 h post-infection in the thigh (FIG. 5A), liver (FIG. 5B) and spleen (FIG. 5C). Compound 72 was administered subcutaneously and ciprofloxacin intraperitoneally (IP). […] Mice were infected with 5×10^6 PA14 cells lung infection model. Compound 54 (10 mg/kg) plus ciprofloxacin 1 mg/kg treatment (subtherapeutic dose) was initiated at 2 h post-infection and repeated at 6, 12, and 18 h post-infection. CFUs were assessed 24 h post-infection in the lung. Compound 54 was administered subcutaneously and ciprofloxacin intraperitoneally (IP).
Thigh infection studies were performed using Compounds 54 and 72.

Series [5] relates to Caco2 intestinal epithelial cells. Description: Survival of Caco2 cells after compound exposure. In kind it is cell-based. The note with it: 25 μM, 3 hours exposure.
Series [6] deals with MvfR regulon. Description: LC/MS quantification of HAQs and related molecules in bacterial culture supernatants. The class given is cell-based, P. aeruginosa. Conditions: Pseudomonas aeruginosa.
Setting [7] is: Pseudomonas aeruginosa, read-out: IC50 pyocyanin (μM).
Setting [8] is: Steady State Binding Affinity KD (μM), steady state.
[9] abbreviates: Steady State Binding Affinity KD [M], steady state.
Where [10] appears, read: mean KD value, mean over the compounds named.
Where [11] appears, read: compound at 10 uM, listed as D62.
Where [12] appears, read: compound at 50 uM, listed as D62.

“Also recorded” adds a separate entry of the source. Like-named read-outs stand apart in the source and are kept apart here.

T1 sequence (Q9I4X0 91-332): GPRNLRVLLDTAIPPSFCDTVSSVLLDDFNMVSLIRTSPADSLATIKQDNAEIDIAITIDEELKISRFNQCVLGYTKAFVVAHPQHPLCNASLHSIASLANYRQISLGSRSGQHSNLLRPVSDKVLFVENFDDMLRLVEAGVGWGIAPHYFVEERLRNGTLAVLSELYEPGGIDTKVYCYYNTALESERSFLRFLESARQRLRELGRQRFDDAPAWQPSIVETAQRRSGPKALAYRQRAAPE

As to `O=C(CC(=O)Nc1ccc([N+](=O)[O-])cc1O)Nc1ccc(Oc2ccccc2)cc1` [Compound 76], the values for the IC50 with MvfR regulon [1] (setting [7]) and in the series with MvfR regulon [2] were 0.368 µM and 0.42 µM, respectively. In addition, the activity at 1 µM in the series on MvfR regulon [1] (Pseudomonas aeruginosa) stood at 10.5%. For the same compound, the activity at 10 µM in the series on MvfR regulon [1] (Pseudomonas aeruginosa) came to 6.17%; in the series on MvfR regulon [2] it was 10%. Also, the activity at 50 µM is 5.6% in the series on MvfR regulon [1] (Pseudomonas aeruginosa) and 6.7% in the series with MvfR regulon [2]. Besides, the “Signal Intensity Rmax” value at MvfR stood at 36.46. The Kd on MvfR (setting [8]) and on MvfR (setting [9]) was 0.478 µM throughout. Besides, in series [3], the “activity on pyocyanin production in MDR clinical isolates” value (“activity on pyocyanin production” for short) was “highly active”.

Consider `N#Cc1ccc(NC(=O)CC(=O)Nc2ccc(Oc3ccccc3)cc2)cc1` [Compound 72], for which the figures for the IC50 with MvfR regulon [1] (setting [7]) and with MvfR regulon [2] were 0.891 µM and 0.52 µM, respectively. Further, the activity at 1 µM in the series with MvfR regulon [1] (Pseudomonas aeruginosa) amounted to 14%. Also, the activity at 10 µM in the series on MvfR regulon [1] (Pseudomonas aeruginosa) came out at 16.8%; in the series with MvfR regulon [2] it was 1.08%. Also, the activity at 50 µM in the series on MvfR regulon [1] (Pseudomonas aeruginosa) was found to be 6.06%; with MvfR regulon [2], 3.7%. In addition, at MvfR, the “Signal Intensity Rmax” value is 34.24. The results for the Kd on MvfR (setting [8]), at MvfR (setting [9]) and on MvfR (setting [10]) were 1.09 µM, 1.09 µM and 0.25 µM, respectively. The “stability in vivo (serum concentration)” value in series [4] (10 mg/kg subcutaneous, over 24 h) is on record as “stable in vivo”. The half-life is 1.19 h in series [4] (mouse lung, 10 mg/kg SC, read-out: lung half-life (converted)) and 1.13 h in series [4] (mouse plasma, 10 mg/kg SC, read-out: plasma half-life (converted)). Besides, the Tlast in series [4] (mouse plasma, 10 mg/kg SC) is roughly 6 h. The “pharmacokinetics (in words)” value in series [4] (mouse, in vivo) is listed as “promising pharmacokinetics”. For the same compound, in the series on PA14 (10 mg/kg SC, CFUs 24 h post-infection), the “bacterial CFUs at the site of infection” value was “decrease bacterial dissemination and titer at the infection site; also recorded: reduced bacterial CFUs”. The “potentiation of ciprofloxacin in reducing PA cells dissemination in spleen and liver” value in the series on PA14 (10 mg/kg compound SC plus ciprofloxacin 1 mg/kg IP) is given as “potentiated ciprofloxacin efficacy”. The “activity on pyocyanin production” value in series [3] (listed as D57) is reported as “highly active; also recorded: confirmed”. Besides, in series [5], the “toxicity to Caco2 (survival)” value is on record as “not toxic”.

Regarding `N#Cc1ccc(NC(=O)CC(=O)Nc2ccc(Oc3ccccc3)cc2)c(N)c1` [Compound 77], the “pyocyanin @1 uM (%)” value in the series with MvfR regulon [1] (compound at 1 uM, listed as D62) turned out to be 57.50%. The “pyocyanin @10 uM (%)” value with MvfR regulon [1] (setting [11]) is 6.17%. The “pyocyanin @50 uM (%)” value in the series with MvfR regulon [1] (setting [12]) is given as 7.30%. For the same compound, the “pqsA @10 uM (%)” value with MvfR regulon [2] (setting [11]) was 1.51%. In addition, the “pqsA @50 uM (%)” value in the series with MvfR regulon [2] (setting [12]) is 6.20%. Moreover, in series [3], the “activity on pyocyanin production” value is “highly active”.

Take `N#Cc1ccc(NC(=O)CC(=O)Nc2ccc(I)cc2)cc1` [Compound 71]: the values for the IC50 with MvfR regulon [1] (setting [7]) and with MvfR regulon [2] were 1.63 µM and 0.72 µM, respectively. For the same compound, the activity at 50 µM with MvfR regulon [1] (Pseudomonas aeruginosa) was 13.3%; in the series with MvfR regulon [2], 6.03%. For the same compound, the activity at 10 µM in the series on MvfR regulon [2] is 13.3%. Besides, the “Signal Intensity Rmax” value at MvfR is reported as 30.74. On MvfR, the “binding intensity relative to parent Compound 1” value is reported as 40 times. Also, the values for the Kd on MvfR (setting [8]), at MvfR (setting [9]) and at MvfR (setting [10]) were 0.259 µM, 0.259 µM and roughly 0.25 µM, respectively. Moreover, the “toxicity to Caco2 (survival)” value in series [5] is reported as “not toxic”.

For `N#Cc1ccc(NC(=O)CC(=O)Nc2ccc([N+](=O)[O-])cc2)cc1` [Compound 65], the activity at 1 µM with MvfR regulon [1] (Pseudomonas aeruginosa) was found to be 80.3%. The activity at 10 µM in the series with MvfR regulon [1] (Pseudomonas aeruginosa) worked out at 29.7%. The activity at 50 µM in the series with MvfR regulon [1] (Pseudomonas aeruginosa) came to 3.4%; in the series on MvfR regulon [2] it was 9.5%; in the series with MvfR regulon [6] (read-out: 2-AA @50 uM) it was 6.94%; in the series on MvfR regulon [6] (read-out: DHQ @50 uM), 12.3%; in the series on MvfR regulon [6] (read-out: HHQ @50 uM (%)), 2.88%; with MvfR regulon [6] (read-out: HQNO @50 uM (%)), 18.4%. For the same compound, in the series on MvfR regulon [6] (read-out: PQS @50 uM (%)), the activity at 50 µM came to 6.32%. The IC50 in the series on MvfR regulon [1] (read-out: IC50 pyocyanin) was 4.48 µM; with MvfR regulon [2], 2.54 µM; with MvfR regulon [6] (PA14, read-out: IC50 2-AA (μM)), 8.95 µM; in the series with MvfR regulon [6] (PA14, read-out: IC50 DHQ (μM)) it was 11.3 µM; with MvfR regulon [6] (PA14, read-out: IC50 HHQ (μM)), 21.2 µM; in the series on MvfR regulon [6] (PA14, read-out: IC50 PQS (μM)), 23 µM. The figures for the IC50 with MvfR regulon [6] (read-out: IC50 AA (increase; μM)) and with MvfR regulon [6] (read-out: IC50 HQNO (μM)) were 34 µM and 23.3 µM, respectively. Also, the “Signal Intensity Rmax” value on MvfR turned out to be 29.51. Besides, the Kd at MvfR (setting [8]) and at MvfR (setting [9]) was 0.399 µM in each case. For the same compound, in series [5], the “toxicity to Caco2 (survival)” value is listed as “not toxic”.

For `N#Cc1ccc(NC(=O)CC(=O)Nc2ccc(Oc3ccccc3)cc2)c(O)c1` [Compound 78], the IC50 with MvfR regulon [1] (setting [7]) is 0.618 µM. Further, in the series on MvfR regulon [1] (Pseudomonas aeruginosa), the activity at 1 µM came out at 8.8%, the activity at 10 µM was 5.73% and the activity at 50 µM came to 5.9%. For the same compound, in the series with MvfR regulon [2], the IC50 came out at 0.938 µM, the activity at 10 µM amounted to 9.63% and the activity at 50 µM worked out at 7.3%. In addition, the “Signal Intensity Rmax” value on MvfR worked out at 34.69. The Kd at MvfR (setting [8]) came to 0.494 µM. The same compound gave a Kd on MvfR (setting [9]) of 0.494 µM. In addition, the “activity on pyocyanin production” value in series [3] was “highly active”.

Take `N#Cc1ccc(NC(=O)CC(=O)Nc2ccc(C#N)cc2)cc1` [Compound 57]: the IC50 with MvfR regulon [1] (setting [7]) amounted to 1.37 µM; in the series with MvfR regulon [2], 0.94 µM. The activity at 50 µM came out at 8.07% in the series on MvfR regulon [1] (Pseudomonas aeruginosa); 8.3% with MvfR regulon [2]; 20% in the series with MvfR regulon [6] (read-out: 2-AA @50 uM); 531% in the series on MvfR regulon [6] (read-out: AA @50 uM); 31.9% with MvfR regulon [6] (read-out: DHQ @50 uM); 18.1% in the series with MvfR regulon [6] (read-out: HHQ @50 uM (%)). Besides, the activity at 50 µM in the series on MvfR regulon [6] (read-out: HQNO @50 uM (%)) was 36%; in the series on MvfR regulon [6] (read-out: PQS @50 uM (%)), 22.3%. Moreover, the “Signal Intensity Rmax” value on MvfR stood at 27.05. Moreover, on MvfR, the “binding intensity relative to parent Compound 1” value is given as 40 times. Also, the Kd at MvfR (setting [8]) was 0.286 µM; at MvfR (setting [9]), 0.286 µM; at MvfR (setting [10]), roughly 0.25 µM.

Usually IC50 stands for the concentration needed to halve the response being measured. One may read the Kd as the equilibrium constant for the complex coming apart. Higher therefore signals weaker binding. A word on the half-life: it is how long it takes for the measured level to halve.
